According to US7608718B2, “4,5-dihydro-1H-pyrazole derivatives having potent CB1-antagonistic activity” (Solvay Pharmaceuticals B.V., priority 2001, dated 2009):

- melting point: 174 to 177 °C
Compound: CNC(=NS(=O)(=O)N1CCCCC1)N1CC(c2cccnc2)C(c2ccc(Cl)cc2)=N1 (stereo not shown) [Example 78, 3-(4-Chlorophenyl)-N-methyl-N′-((piperidin-1-yl)sulfonyl)-4-(pyridin-3-yl)-4,5-dihydro-1H-pyrazole-1-carboxamidine]
